# Experimental data reported in ChEMBL document CHEMBL3885861, “Open TG-GATES”.
# Species: Rattus norvegicus
# Test: Open TG-GATES - Regimen: Single
# Format: toxicity, organism-based, Sprague-Dawley
# Set-up: regimen Single, gender Male, age 6 weeks
# Conditions: in vivo, po, 1000 mg/kg, route gavage, dose level High; for APTT / Bas / Eos / Fbg / Hb / Ht / Lym / MCH / MCHC / MCV / Mono / Neu / PT / Plat / RBC / Ret / WBC: tissue Blood; for KIDNEY_L / KIDNEY_R / KIDNEY_TOTAL: tissue Kidney; for LIVER: tissue Liver; for A/G / ALP / ALT / AST / BUN / CRE / Ca / Cl / DBIL / GLC / IP / K / LDH / Na / PL / RALB / TBIL / TC / TG / TP / gamma-GTP: tissue Plasma
smiles,measurement,setting,value
CC(S)C(=O)NCC(=O)O (configuration not stated) [TIOPRONIN],TERMINAL_BW,3 h,213.5 g
same,APTT,3 h,23 s
same,Bas,3 h,0%
same,Eos,3 h,0.4%
same,Fbg,3 h,307.8 mg/dL
same,Hb,3 h,13 g/dL
same,Ht,3 h,40.2%
same,Lym,3 h,75.8%
same,MCH,3 h,20.5 pg
same,MCHC,3 h,32.3%
same,MCV,3 h,63.5 fL
same,Mono,3 h,4%
same,Neu,3 h,18%
same,PT,3 h,17.1 s
same,Plat,3 h,120.4 x10_4/uL
same,RBC,3 h,633.8 x10_4/ul
same,Ret,3 h,8%
same,WBC,3 h,75.4 x10_2/uL
same,KIDNEY_L,3 h,0.9 g
same,KIDNEY_R,3 h,0.9 g
same,KIDNEY_TOTAL,3 h,1.8 g
same,LIVER,3 h,9.2 g
same,A/G,3 h,1.1
same,ALP,3 h,1422.8 IU/L
same,ALT,3 h,95.4 IU/L
same,AST,3 h,90 IU/L
same,BUN,3 h,11.2 mg/dL
same,CRE,3 h,0.1 mg/dL
same,Ca,3 h,10.4 mg/dL
same,Cl,3 h,106.8 meq/L
same,DBIL,3 h,0 mg/dL
same,GLC,3 h,199.4 mg/dL
same,IP,3 h,9.1 mg/dL
same,K,3 h,4 meq/L
same,LDH,3 h,232.2 IU/L
same,Na,3 h,141.4 meq/L
same,PL,3 h,115.4 mg/dL
same,RALB,3 h,2.8 g/dL
same,TBIL,3 h,0.008 mg/dL
same,TC,3 h,69 mg/dL
same,TG,3 h,52.8 mg/dL
same,TP,3 h,5.3 g/dL
same,gamma-GTP,3 h,1.8 IU/L
same,TERMINAL_BW,6 h,211.1 g
same,APTT,6 h,23.4 s
same,Bas,6 h,0%
same,Eos,6 h,0.4%
same,Fbg,6 h,291.4 mg/dL
same,Hb,6 h,12.9 g/dL
same,Ht,6 h,39.5%
same,Lym,6 h,76.2%
same,MCH,6 h,20.3 pg
same,MCHC,6 h,32.6%
same,MCV,6 h,62.4 fL
same,Mono,6 h,3.2%
same,Neu,6 h,18.6%
same,PT,6 h,17.6 s
same,Plat,6 h,120 x10_4/uL
same,RBC,6 h,632.6 x10_4/ul
same,Ret,6 h,8.1%
same,WBC,6 h,99 x10_2/uL
same,KIDNEY_L,6 h,0.9 g
same,KIDNEY_R,6 h,0.9 g
same,KIDNEY_TOTAL,6 h,1.9 g
same,LIVER,6 h,8.2 g
same,A/G,6 h,1.2
same,ALP,6 h,1452 IU/L
same,ALT,6 h,77.2 IU/L
same,AST,6 h,78 IU/L
same,BUN,6 h,9 mg/dL
same,CRE,6 h,0.1 mg/dL
same,Ca,6 h,10.3 mg/dL
same,Cl,6 h,107 meq/L
same,DBIL,6 h,0.002 mg/dL
same,GLC,6 h,196 mg/dL
same,IP,6 h,9.3 mg/dL
same,K,6 h,4.1 meq/L
same,LDH,6 h,147.4 IU/L
same,Na,6 h,140.4 meq/L
same,PL,6 h,100.4 mg/dL
same,RALB,6 h,2.8 g/dL
same,TBIL,6 h,0.016 mg/dL
same,TC,6 h,59.8 mg/dL
same,TG,6 h,31.6 mg/dL
same,TP,6 h,5.2 g/dL
same,gamma-GTP,6 h,1.8 IU/L
same,TERMINAL_BW,9 h,211.2 g
same,APTT,9 h,23.6 s
same,Bas,9 h,0%
same,Eos,9 h,0.2%
same,Fbg,9 h,271.2 mg/dL
same,Hb,9 h,12.6 g/dL
same,Ht,9 h,39.2%
same,Lym,9 h,74.6%
same,MCH,9 h,20.3 pg
same,MCHC,9 h,32%
same,MCV,9 h,63.2 fL
same,Mono,9 h,1.4%
same,Neu,9 h,23.4%
same,PT,9 h,17.6 s
same,Plat,9 h,123.5 x10_4/uL
same,RBC,9 h,621.6 x10_4/ul
same,Ret,9 h,7.4%
same,WBC,9 h,71.9 x10_2/uL
same,KIDNEY_L,9 h,1 g
same,KIDNEY_R,9 h,1 g
same,KIDNEY_TOTAL,9 h,1.9 g
same,LIVER,9 h,7.8 g
same,A/G,9 h,1.2
same,ALP,9 h,1385.8 IU/L
same,ALT,9 h,69.4 IU/L
same,AST,9 h,80.6 IU/L
same,BUN,9 h,9.4 mg/dL
same,CRE,9 h,0.1 mg/dL
same,Ca,9 h,10.5 mg/dL
same,Cl,9 h,106.8 meq/L
same,DBIL,9 h,0.006 mg/dL
same,GLC,9 h,188.2 mg/dL
same,IP,9 h,9.1 mg/dL
same,K,9 h,4.3 meq/L
same,LDH,9 h,160.4 IU/L
same,Na,9 h,140.8 meq/L
same,PL,9 h,98.6 mg/dL
same,RALB,9 h,2.8 g/dL
same,TBIL,9 h,0.018 mg/dL
same,TC,9 h,55.6 mg/dL
same,TG,9 h,40.4 mg/dL
same,TP,9 h,5.2 g/dL
same,gamma-GTP,9 h,1.2 IU/L
same,TERMINAL_BW,24 h,228 g
same,APTT,24 h,22.3 s
same,Bas,24 h,0%
same,Eos,24 h,1%
same,Fbg,24 h,307.2 mg/dL
same,Hb,24 h,12.8 g/dL
same,Ht,24 h,39.1%
same,Lym,24 h,76.8%
same,MCH,24 h,20.2 pg
same,MCHC,24 h,32.6%
same,MCV,24 h,62.1 fL
same,Mono,24 h,3.2%
same,Neu,24 h,18%
same,PT,24 h,16.2 s
same,Plat,24 h,115.2 x10_4/uL
same,RBC,24 h,630.2 x10_4/ul
same,Ret,24 h,7.7%
same,WBC,24 h,117.2 x10_2/uL
same,KIDNEY_L,24 h,1 g
same,KIDNEY_R,24 h,1 g
same,KIDNEY_TOTAL,24 h,2 g
same,LIVER,24 h,10.2 g
same,A/G,24 h,1.2
same,ALP,24 h,1503 IU/L
same,ALT,24 h,47 IU/L
same,AST,24 h,76.6 IU/L
same,BUN,24 h,16.2 mg/dL
same,CRE,24 h,0.2 mg/dL
same,Ca,24 h,10.8 mg/dL
same,Cl,24 h,107.4 meq/L
same,DBIL,24 h,0 mg/dL
same,GLC,24 h,181.6 mg/dL
same,IP,24 h,7.4 mg/dL
same,K,24 h,4.6 meq/L
same,LDH,24 h,176.2 IU/L
same,Na,24 h,142.6 meq/L
same,PL,24 h,138.8 mg/dL
same,RALB,24 h,2.9 g/dL
same,TBIL,24 h,0.008 mg/dL
same,TC,24 h,76.8 mg/dL
same,TG,24 h,117 mg/dL
same,TP,24 h,5.4 g/dL
same,gamma-GTP,24 h,1.4 IU/L
